The results in this text go back to ChEMBL document CHEMBL5143547, “Antimycobacterial and anti-inflammatory activities of thiourea derivatives focusing on treatment approaches for severe pulmonary tuberculosis” (Bioorg Med Chem, 2022).

The source made the active and inactive calls. The calls are words filed in the database; no cut-off is given here.

Data set [1] concerns Mycobacterium tuberculosis. The data set can be described thus: Antitubercular activity against Mycobacterium tuberculosis H37Rv infected in mouse RAW264.7 cells assessed as reduction in microbial growth after 4 days followed by cell lysis and measured after 21 days. The settings on record: 96 h, time 4 day. It counts as functional.
A short description of data set [2]: Cytotoxicity against LPS-stimulated mouse RAW264.7 cells after 24 hrs by MTT assay. The class given is toxicity, cell-based. The settings on record: LPS-stimulated RAW264.7 cells. On the technique in general: Tetrazolium assays rely on reduction of a dye to a coloured formazan, in cell work by metabolically active cells.
Data set [3] relates to Mycobacterium tuberculosis. In words: Antitubercular activity against Mycobacterium tuberculosis M299 assessed as reduction in microbial growth after 5 days by MTT assay. The settings on record: M299, 120 h. The class given is functional, organism-based.
Data set [4] is described as follows: Selectivity index, ratio of CC50 for cytotoxicity against LPS-stimulated mouse RAW264.7 cells to MIC50 for antitubercular activity against Mycobacterium tuberculosis M299. It counts as toxicity, cell-based. The following applies: LPS-stimulated RAW264.7 cells, read-out: Selectivity Index.
In data set [5] the test system is Mycobacterium tuberculosis. The data set can be described thus: Antitubercular activity against Mycobacterium tuberculosis M299 infected in mouse RAW264.7 cells assessed as reduction in intracellular microbial growth after 4 days followed by cell lysis and measured after 21 days. It counts as functional. The following applies: M299, 96 h, time 4 day.
Data set [6] concerns RAW264.7. In words: Anti-inflammatory activity against LPS-stimulated mouse RAW264.7 cells assessed as reduction in TNFalpha protein expression level after 24 hrs by ELISA. The settings on record: RAW264.7, 24 h. It counts as functional, cell-based. (In general: An ELISA detects its analyte on a solid surface through an enzyme-linked reagent.)
The test system of data set [7] is RAW264.7. The data set can be described thus: Anti-inflammatory activity against LPS-stimulated mouse RAW264.7 cells assessed as reduction in IL1beta protein expression level after 24 hrs by ELISA. The class given is functional, cell-based. The settings on record: RAW264.7, 24 h.
Data set [8] has as its system Mycobacterium tuberculosis. In words: Antitubercular activity against Mycobacterium tuberculosis H37Rv assessed as reduction in microbial growth after 5 days by MTT assay. The class given is functional. The settings on record: 120 h, time 5 day.
Data set [9] deals with RAW264.7. In words: Anti-inflammatory activity against LPS-stimulated mouse RAW264.7 cells assessed as reduction in TNFalpha protein expression level at 12.5 uM after 24 hrs by ELISA. It counts as functional, cell-based.
Data set [10] deals with RAW264.7. In words: Inhibition of NO production in mouse RAW264.7 cells incubated for 24 hrs by Griess reagent based analysis. The class given is functional, cell-based. The following applies: RAW264.7, 24 h.
Data set [11] relates to RAW264.7. In words: Anti-inflammatory activity against LPS-stimulated mouse RAW264.7 cells assessed as reduction in iNOS protein expression level at 100 uM after 24 hrs by immunoblot analysis relative to control. It counts as functional. (Immunoblotting shows a protein as a band on a membrane.)
Data set [12] can be described thus: Selectivity index, ratio of CC50 for cytotoxicity against LPS-stimulated mouse RAW264.7 cells to MIC50 for antitubercular activity against Mycobacterium tuberculosis H37Rv. The class given is toxicity, cell-based. The following applies: LPS-stimulated RAW264.7 cells, read-out: Selectivity Index.
Data set [13] deals with RAW264.7. In words: Anti-inflammatory activity against LPS-stimulated mouse RAW264.7 cells assessed as reduction in iNOS protein expression level at 50 uM after 24 hrs by immunoblot analysis. The class given is functional, cell-based.

As usually defined, the MIC50 is the lowest concentration that inhibits either 50% of growth or 50% of the strains tested, depending on the study. The term CC50 denotes the concentration at which the toxic effect on the cells reaches its halfway point. The low end stands for greater toxicity to the cells, the high end for lower toxicity to the cells. As a reminder, the IC50 is the point on the concentration scale where inhibition reaches its midpoint. One may read the inhibition as the percentage by which the read-out fell short of the control. In the case of `S=C(NCc1ccccc1)Nc1ccc2c(c1)OCCO2`, the MIC50 in data set [1] was 4.8 µM; in [5], 19.4 µM; in data set [8], 2 µM. The molecule also had a half-maximal cytotoxic concentration (CC50) at 24 h in data set [2] of at least 200 µM. Also, the concentration for half-maximal inhibition (IC50) came to 11.3 µM in data set [3], 20.7 µM in [6], 33.2 µM in data set [7] and 13.7 µM in data set [10]. In addition, the selectivity ratio is at least 17.7 in data set [4] and over 100 in data set [12]. In data set [9], the inhibition entry was “Active”. Moreover, the inhibition at 100 µM in [11] was at most 100%.

For the molecule `CC(C)c1ccc(NC(=S)NCc2ccccc2)cc1`, the MIC50 was determined as 1.7 µM in data set [1], 5.6 µM in data set [5] and 2.3 µM in data set [8]. For the same molecule, the inhibition entry in data set [13] and in data set [9] was “Active” each time. The molecule also returned a 50% cytotoxic concentration (CC50) at 24 h in data set [2] of 121 µM. For the same molecule, the IC50 was found to be 7.8 µM in [3], 4 µM in data set [6], 55.7 µM in [7] and 2.4 µM in data set [10]. The selectivity ratio in data set [4] was 15.5; in [12], 52.5. In [11], the inhibition at 100 µM is at most 100%.

On to `COc1cc(NC(=S)NCCc2ccccc2)cc(OC)c1OC`, for which the MIC50 in data set [1] was found to be 7.7 µM; in data set [5], 12.9 µM; in data set [8], 8.6 µM. Also, the CC50 at 24 h in data set [2] is at least 200 µM. The half-maximal inhibitory concentration (IC50) amounted to 24.8 µM in data set [3], 15.3 µM in data set [6], 80.2 µM in data set [7] and 4.1 µM in data set [10]. Also, the selectivity ratio in data set [4] is at least 8.1; in [12], over 25. The inhibition entry in data set [9] was “Active”. In [11], the inhibition at 100 µM is at most 100%.

Take `CO[C@H]1/C=C/O[C@@]2(C)Oc3c(C)c(O)c4c(O)c(c(/C=N/N5CCN(C)CC5)c(O)c4c3C2=O)NC(=O)/C(C)=C\C=C\[C@H](C)[C@H](O)[C@@H](C)[C@@H](O)[C@@H](C)[C@H](OC(C)=O)[C@@H]1C` [RIFAMPIN]: in data set [3], the half-maximal inhibitory concentration (IC50) worked out at 1.2 µM. Further, the MIC50 in [8] was found to be 0.2 µM.

Take `CC(C)Cc1ccc(C(C)C(=O)O)cc1` (configuration not stated) [IBUPROFEN]: the figures for the IC50 in [6] and in data set [7] were 2.1 µM and 14.4 µM, respectively. For the same molecule, the inhibition entry in [9] is “Active”.

For the molecule `O=C(O)c1ccc(NC(=S)NCc2ccccc2)cc1O`, the results for the MIC50 in [1], in [5] and in data set [8] were 10.9 µM, 24.7 µM and 5.9 µM, respectively. This molecule also had a CC50 at 24 h in data set [2] of 197 µM. Further, the IC50 was 24.7 µM in data set [3], 28.4 µM in [6], 47.9 µM in data set [7] and 8.1 µM in data set [10]. Also, the selectivity ratio in [4] is 8; in [12] it was 33.3. The inhibition result in data set [9] was “Active”. The inhibition at 100 µM in [11] was at most 100%.

In the case of `O=C(NNC(=S)NCc1ccccc1)c1ccncc1`, the results for the MIC50 in data set [1], in [5] and in data set [8] were 3.7 µM, 32 µM and 1.3 µM, respectively. The CC50 at 24 h in data set [2] was found to be 93.2 µM. Moreover, the IC50 in data set [3] was 6.9 µM; in data set [6] it was 18.7 µM; in data set [7], at least 200 µM; in data set [10], 7.4 µM. Moreover, the results for the selectivity ratio in data set [4] and in data set [12] were 13.5 and 71.7, respectively. In addition, the inhibition result in data set [9] is “Active”. Also, the inhibition at 100 µM in [11] is at most 100%.

`N#CNC(=S)NCCc1ccccc1` had a CC50 at 24 h in data set [2] of 65.9 µM. Also, the MIC50 in data set [8] came to 33.3 µM. Moreover, the half-inhibitory concentration (IC50) in data set [10] was determined as 10.1 µM. The selectivity ratio in [12] amounted to 1.9.

In data set [2], `S=C(NCc1ccccc1)N1CCN(c2ccccc2)CC1` came in with a CC50 at 24 h of 54.3 µM. For the same molecule, in data set [8], the MIC50 is 27.9 µM. Further, in data set [10], the IC50 turned out to be 4.1 µM. Besides, the selectivity ratio in data set [12] was determined as 1.9.

In turn, `S=C(NCc1ccccc1)Nc1ccc2c(c1)OCO2` returned a CC50 at 24 h in [2] of at least 200 µM. In addition, the MIC50 in data set [8] is 132 µM. In data set [10], this molecule came in with an IC50 of 24.8 µM. For the same molecule, in [12], the selectivity ratio is over 1.5.

As to `S=C(Nc1ccccc1)Nc1ccccn1`, the 50% cytotoxic concentration (CC50) at 24 h in [2] was at least 200 µM. Besides, the MIC50 in [8] came out at 16.4 µM. This molecule also showed an IC50 in [10] of 182 µM. Besides, in data set [12], the selectivity ratio is over 12.2.
